Source: the NIST ThermoML archive (doi:10.1016/j.jct.2011.04.006)
Where “and” joins values, the source holds several entries; their conditions need not be identical. Equal values may be shown once. Numbers after ± are expanded uncertainties.

Key:
[1] = 298.15 K; 101.33 kPa; Liquid; Vibrating tube method
[2] = excess molar enthalpy (molar enthalpy of mixing); xn = mol fraction of the nth substance listed; details: 298.15 K, 101 kPa, Liquid, Flow calorimetry

Question: With CCC(C)(C)C [2,2-dimethylbutane] as the compound, how does the mass density [1] read?
Answer: Its mass density is 644.588 ± 0.26 kg/m3.

Question: With CCC(C)(C)C [2,2-dimethylbutane] + CCCCOCCCC as the compound, how does the excess molar enthalpy ([2]; x2 = 0.05) read?
Answer: Its excess molar enthalpy is 0.0065 ± 0.000263 kcal/mol.

Question: What about the excess molar enthalpy ([2]; x2 = 0.1) of the same compound?
Answer: Its excess molar enthalpy is 0.0112 ± 0.000287 kcal/mol.

Question: What about the excess molar enthalpy ([2]; x2 = 0.1499) of the same compound?
Answer: Its excess molar enthalpy is 0.015 ± 0.000311 kcal/mol.

Question: And the excess molar enthalpy ([2]; x2 = 0.2001)?
Answer: Its excess molar enthalpy is 0.018 ± 0.000359 kcal/mol.

Question: And the excess molar enthalpy ([2]; x2 = 0.2502)?
Answer: Its excess molar enthalpy is 0.0205 ± 0.000382 kcal/mol.

Question: What about the excess molar enthalpy ([2]; x2 = 0.2996) of the same compound?
Answer: Its excess molar enthalpy is 0.0224 ± 0.000406 kcal/mol.

Question: And the excess molar enthalpy ([2]; x2 = 0.3501)?
Answer: The excess molar enthalpy was 0.0237 ± 0.000406 kcal/mol.

Question: What about the excess molar enthalpy ([2]; x2 = 0.3998) of the same compound?
Answer: The excess molar enthalpy was 0.0246 ± 0.00043 kcal/mol.

Question: What about the excess molar enthalpy ([2]; x2 = 0.4497) of the same compound?
Answer: Its excess molar enthalpy is 0.0249 ± 0.00043 kcal/mol.

Question: And the excess molar enthalpy ([2]; x2 = 0.5003)?
Answer: The excess molar enthalpy was 0.0246 ± 0.00043 kcal/mol.

Question: What about the excess molar enthalpy ([2]; x2 = 0.5004) of the same compound?
Answer: The excess molar enthalpy was 0.0245 ± 0.00043 kcal/mol.

Question: And the excess molar enthalpy ([2]; x2 = 0.5499)?
Answer: Its excess molar enthalpy is 0.0239 ± 0.000406 kcal/mol.

Question: What about the excess molar enthalpy ([2]; x2 = 0.6002) of the same compound?
Answer: The excess molar enthalpy was 0.0228 ± 0.000406 kcal/mol.

Question: What about the excess molar enthalpy ([2]; x2 = 0.6498) of the same compound?
Answer: Its excess molar enthalpy is 0.0213 ± 0.000382 kcal/mol.

Question: And the excess molar enthalpy ([2]; x2 = 0.6999)?
Answer: The excess molar enthalpy was 0.0197 ± 0.000359 kcal/mol.

Question: And the excess molar enthalpy ([2]; x2 = 0.7501)?
Answer: The excess molar enthalpy was 0.0173 ± 0.000335 kcal/mol.

Question: What about the excess molar enthalpy ([2]; x2 = 0.8) of the same compound?
Answer: Its excess molar enthalpy is 0.0149 ± 0.000311 kcal/mol.

Question: What about the excess molar enthalpy ([2]; x2 = 0.85) of the same compound?
Answer: Its excess molar enthalpy is 0.0119 ± 0.000287 kcal/mol.

Question: What about the excess molar enthalpy ([2]; x2 = 0.9) of the same compound?
Answer: Its excess molar enthalpy is 0.0088 ± 0.000263 kcal/mol.

Question: What about the excess molar enthalpy ([2]; x2 = 0.95) of the same compound?
Answer: The excess molar enthalpy was 0.00528 ± 0.000239 kcal/mol.

Question: With CCC(C)(C)C [2,2-dimethylbutane] + CCCOCCC as the compound, how does the excess molar enthalpy ([2]; x2 = 0.05) read?
Answer: The excess molar enthalpy was 0.00906 ± 0.000287 kcal/mol.

Question: What about the excess molar enthalpy ([2]; x2 = 0.1) of the same compound?
Answer: Its excess molar enthalpy is 0.0163 ± 0.000359 kcal/mol.

Question: And the excess molar enthalpy ([2]; x2 = 0.15)?
Answer: Its excess molar enthalpy is 0.0214 ± 0.000406 kcal/mol.

Question: And the excess molar enthalpy ([2]; x2 = 0.2)?
Answer: The excess molar enthalpy was 0.0261 ± 0.000454 kcal/mol.

Question: What about the excess molar enthalpy ([2]; x2 = 0.2499) of the same compound?
Answer: Its excess molar enthalpy is 0.0298 ± 0.000478 kcal/mol.

Question: What about the excess molar enthalpy ([2]; x2 = 0.2998) of the same compound?
Answer: The excess molar enthalpy was 0.0328 ± 0.000526 kcal/mol.

Question: And the excess molar enthalpy ([2]; x2 = 0.3499)?
Answer: Its excess molar enthalpy is 0.0349 ± 0.00055 kcal/mol.

Question: And the excess molar enthalpy ([2]; x2 = 0.3998)?
Answer: The excess molar enthalpy was 0.036 ± 0.00055 kcal/mol.

Question: And the excess molar enthalpy ([2]; x2 = 0.4501)?
Answer: Its excess molar enthalpy is 0.037 ± 0.000574 kcal/mol.

Question: What about the excess molar enthalpy ([2]; x2 = 0.4995) of the same compound?
Answer: Its excess molar enthalpy is 0.037 ± 0.000574 kcal/mol.

Question: What about the excess molar enthalpy ([2]; x2 = 0.5497) of the same compound?
Answer: Its excess molar enthalpy is 0.0361 ± 0.00055 kcal/mol.

Question: What about the excess molar enthalpy ([2]; x2 = 0.6001) of the same compound?
Answer: The excess molar enthalpy was 0.0347 ± 0.00055 kcal/mol.

Question: And the excess molar enthalpy ([2]; x2 = 0.65)?
Answer: The excess molar enthalpy was 0.0325 ± 0.000526 kcal/mol.

Question: And the excess molar enthalpy ([2]; x2 = 0.7001)?
Answer: Its excess molar enthalpy is 0.0298 ± 0.000478 kcal/mol.

Question: And the excess molar enthalpy ([2]; x2 = 0.7503)?
Answer: Its excess molar enthalpy is 0.0265 ± 0.000454 kcal/mol.

Question: And the excess molar enthalpy ([2]; x2 = 0.8001)?
Answer: Its excess molar enthalpy is 0.0226 ± 0.000406 kcal/mol.

Question: What about the excess molar enthalpy ([2]; x2 = 0.85) of the same compound?
Answer: The excess molar enthalpy was 0.0179 ± 0.000359 kcal/mol.

Question: What about the excess molar enthalpy ([2]; x2 = 0.9) of the same compound?
Answer: Its excess molar enthalpy is 0.0127 ± 0.000311 kcal/mol.

Question: What about the excess molar enthalpy ([2]; x2 = 0.95) of the same compound?
Answer: The excess molar enthalpy was 0.00676 ± 0.000263 kcal/mol.

Question: For CC(C)C(C)C [2,3-dimethylbutane], which mass density [1] is on record?
Answer: The mass density was 657.023 ± 0.26 kg/m3.

Question: With CC(C)C(C)C [2,3-dimethylbutane] + CCCCOCCCC as the compound, how does the excess molar enthalpy ([2]; x2 = 0.05) read?
Answer: The excess molar enthalpy was 0.00607 ± 0.000239 kcal/mol.

Question: And the excess molar enthalpy ([2]; x2 = 0.1)?
Answer: Its excess molar enthalpy is 0.0104 ± 0.000287 kcal/mol.

Question: And the excess molar enthalpy ([2]; x2 = 0.1501)?
Answer: Its excess molar enthalpy is 0.0141 ± 0.000311 kcal/mol.

Question: What about the excess molar enthalpy ([2]; x2 = 0.2) of the same compound?
Answer: Its excess molar enthalpy is 0.0172 ± 0.000335 kcal/mol.

Question: And the excess molar enthalpy ([2]; x2 = 0.2502)?
Answer: Its excess molar enthalpy is 0.0196 ± 0.000359 kcal/mol.

Question: And the excess molar enthalpy ([2]; x2 = 0.3)?
Answer: Its excess molar enthalpy is 0.0215 ± 0.000382 kcal/mol.

Question: What about the excess molar enthalpy ([2]; x2 = 0.3499) of the same compound?
Answer: Its excess molar enthalpy is 0.0228 ± 0.000406 kcal/mol.

Question: What about the excess molar enthalpy ([2]; x2 = 0.3998) of the same compound?
Answer: Its excess molar enthalpy is 0.0238 ± 0.000406 kcal/mol.

Question: What about the excess molar enthalpy ([2]; x2 = 0.4501) of the same compound?
Answer: Its excess molar enthalpy is 0.0243 ± 0.00043 kcal/mol.

Question: And the excess molar enthalpy ([2]; x2 = 0.5)?
Answer: Its excess molar enthalpy is 0.0243 ± 0.00043 kcal/mol.

Question: And the excess molar enthalpy ([2]; x2 = 0.5002)?
Answer: Its excess molar enthalpy is 0.0242 ± 0.000406 kcal/mol.

Question: What about the excess molar enthalpy ([2]; x2 = 0.5493) of the same compound?
Answer: Its excess molar enthalpy is 0.0239 ± 0.000406 kcal/mol.

Question: What about the excess molar enthalpy ([2]; x2 = 0.5999) of the same compound?
Answer: Its excess molar enthalpy is 0.0229 ± 0.000406 kcal/mol.

Question: And the excess molar enthalpy ([2]; x2 = 0.6501)?
Answer: The excess molar enthalpy was 0.0217 ± 0.000382 kcal/mol.

Question: And the excess molar enthalpy ([2]; x2 = 0.7)?
Answer: Its excess molar enthalpy is 0.02 ± 0.000382 kcal/mol.

Question: What about the excess molar enthalpy ([2]; x2 = 0.75) of the same compound?
Answer: Its excess molar enthalpy is 0.0181 ± 0.000359 kcal/mol.

Question: And the excess molar enthalpy ([2]; x2 = 0.8001)?
Answer: The excess molar enthalpy was 0.0159 ± 0.000335 kcal/mol.

Question: And the excess molar enthalpy ([2]; x2 = 0.85)?
Answer: The excess molar enthalpy was 0.0133 ± 0.000311 kcal/mol.

Question: And the excess molar enthalpy ([2]; x2 = 0.9001)?
Answer: The excess molar enthalpy was 0.0101 ± 0.000263 kcal/mol.

Question: What about the excess molar enthalpy ([2]; x2 = 0.95) of the same compound?
Answer: Its excess molar enthalpy is 0.00672 ± 0.000239 kcal/mol.

Question: Which results are given for CC(C)C(C)C [2,3-dimethylbutane] + CCCOCCC?
Answer: excess molar enthalpy ([2]; x2 = 0.05): 0.00846 ± 0.000287 kcal/mol; excess molar enthalpy ([2]; x2 = 0.1): 0.0152 ± 0.000335 kcal/mol; excess molar enthalpy ([2]; x2 = 0.15): 0.0206 ± 0.000382 kcal/mol; excess molar enthalpy ([2]; x2 = 0.2001): 0.0252 ± 0.00043 kcal/mol; excess molar enthalpy ([2]; x2 = 0.25): 0.0288 ± 0.000478 kcal/mol; excess molar enthalpy ([2]; x2 = 0.3001): 0.0321 ± 0.000502 kcal/mol; excess molar enthalpy ([2]; x2 = 0.3499): 0.0346 ± 0.00055 kcal/mol; excess molar enthalpy ([2]; x2 = 0.4): 0.0364 ± 0.000574 kcal/mol; excess molar enthalpy ([2]; x2 = 0.4498): 0.0374 ± 0.000574 kcal/mol; excess molar enthalpy ([2]; x2 = 0.4998): 0.0377 kcal/mol and 0.0376 kcal/mol; excess molar enthalpy ([2]; x2 = 0.55): 0.0372 ± 0.000574 kcal/mol; excess molar enthalpy ([2]; x2 = 0.5999): 0.0359 ± 0.00055 kcal/mol; excess molar enthalpy ([2]; x2 = 0.6501): 0.034 ± 0.000526 kcal/mol; excess molar enthalpy ([2]; x2 = 0.7): 0.0314 ± 0.000502 kcal/mol; excess molar enthalpy ([2]; x2 = 0.7502): 0.028 ± 0.000478 kcal/mol; excess molar enthalpy ([2]; x2 = 0.8): 0.0242 ± 0.00043 kcal/mol; excess molar enthalpy ([2]; x2 = 0.85): 0.0193 ± 0.000382 kcal/mol; excess molar enthalpy ([2]; x2 = 0.9): 0.0138 ± 0.000335 kcal/mol; excess molar enthalpy ([2]; x2 = 0.95): 0.0075 ± 0.000287 kcal/mol

Question: Which mass density [1] does the source give for CCCOCCC [dipropyl ether] here?
Answer: Its mass density is 741.977 ± 0.24 kg/m3.
